Measured values reported in US20150148411A1, “COMPOSITIONS AND METHODS FOR DIAGNOSIS AND THERAPY OF DISORDERS RELATED TO ALTERATIONS OF MYH9” (THE ROCKEFELLER UNIVERSITY, priority 2013, published 2015).
Entries after “also recorded” stand apart in the source; their conditions may differ. Where a SMILES comes first, the peptide text is derived from it. The star is where a group is joined. Cbz = O=C(OCc1ccccc1)*

What was measured:
p53 activation = assay: p53/DNA damage response: p53 immunoblot of doxorubicin-treated primary keratinocytes; type: cell-based, mouse; settings: for DDR-induced p53 activation (p53 immunoblot): doxorubicin-treated mouse keratinocytes, blebbistatin 4 μM, Y27632 10 μM, latrunculin 2 μM
Method: (§1) Western Blot analysis:-Protein blotting was carried out using standard protocols. Briefly, total cell lysates were prepared using RIPA (20 mM Tris-HCl (pH 8.0), 150 mM NaCl 1 mM EDTA, 1mM EGTA, 1% Triton X-100, 0.5% Deoxycorate, 0.1% SDS, 25 mM β-glycerophosphate, 10 mM NaF, 1 mM Na3VO4) supplemented with protease inhibitors (Complete mini, Roche). Blots were blocked with 5% BSA in 1×TBS 0.1% Tween-20 (TBST) for 1 h and incubated with the primary antibody overnight at 4° C. (diluted in TBST according to the manufacturer's protocol). Primary antibodies were reactive to rabbit anti-Myh9 (1:500, HPA001644, Sigma); phosphorylated (P) Erk1/2 (1:1000, #9101, Cell Signaling), Erk1/2 (1:1000, #9102, Cell Signaling), mouse anti-p53 (1:500, #2524, Cell Signaling), mouse anti-p21(F5) (1:500; sc-6246, Santa Cruz), mouse anti-GAPDH (ab8245, 1:5000; Abcam), mouse anti-Chk2 (1:500, #611570, BD); rabbit anti-P-Chk1 (1:500, #12302P, Cell Signaling); mouse anti-Chk1 (1:1000, 2360S, Cell Signaling); rabbit anti-pSmad2 (Ser465/467) (1:1000, Cell Signaling) and mouse anti-Smad2/3 (610843, 1/500; BD). Blots were washed three times in TBST for 30 min, incubated with HRP-conjugated secondary antibodies (1:2,000; Promega) for lh at room temperature, washed 3 times in TBST for 30 min and visualized using enhanced chemiluminescence (ECL).
(§2) p53/DNA damage responses:_For measurement of DNA damage response and p53 activation primary mouse keratinocytes cells were seeded at a cell density of 100,000 cells per well in a 6-well plate and allowed to grow for 24 h at 3% O2 till importantly 100% confluency. Cells were then treated with doxorubicin ([…]) as previously reported. For experiments using blebbistatin, cells were pretreated with blebbistatin (4 μM final concentration, Sigma B0560) 30 min prior to doxorubicin treatment. The Rock inhibitor Y27632 was used at 10 μM (Sigma Y0503), LatrunculinA was used at 2 μM (Sigma L5163), LeptomycinB was used at 20 nM (Sigma #9676) and the proteasome inhibitor MG132 was used at 3 μM (Sigma M7449).

H2AX, Chk1 and Chk2 = assay: DDR activation markers by Western blot (γH2AX, phosphorylated Chk1, Chk2); type: cell-based, mouse; settings: keratinocytes treated with inhibitor
Method: as §1, §2

nuclear p53 accumulation = assay: Nuclear p53 retention in DDR-induced Myh9-knockdown primary keratinocytes (nuclear/cytoplasmic fractions); type: cell-based, mouse; settings: LeptomycinB 20 nM; for nuclear p53 accumulation/retention after DNA damage: DDR-induced Myh9-knockdown (myosin-IIa-deficient) keratinocytes, blebbistatin 4 μM
Method: as §1, §2

HNSCC tumor suppressors = assay: Pooled in vivo shRNA screen with deep sequencing of tumors; parameters: species or system mouse; settings: deep sequencing of 87 lesions
Excerpt: Constructs and RNAi: shRNA constructs for the shRNA pool were obtained from The Broad Institute's Mission TRC-1 mouse library. We tested and used especially the following shRNAs targeting Brcal and Myh9:
Tumor free survival: Control and TβRII-cKO animals were transduced at E9.5 with low-titer shRNA pool targeting orthologs of putative HNSCC genes, including Brcal or Myh9. Scrambled shRNA was used as control. Transductions and knockdowns were confirmed by real-time PCR of mRNAs isolated from newborn skin epidermis or by fluorescence microscopy of a lentiviral reporter fluor, H2B-RFP or H2B-GFP. Animals were assessed biweekly for signs of tumorigenesis, and were considered positive if lesions grew to be larger than 2 mm in diameter.
Deep Sequencing: Sample preparation, preamplification and sequence processing Epidermal and tumor cells were subjected to genomic DNA isolation with the DNeasy Blood & Tissue Kit (Qiagen), and each sample was analyzed for target transduction using real-time PCR. […] Illumina reads were trimmed to the 21 nt hairpin sequence using the FASTX-Toolkit and aligned to the TRC 2.x library with BWA (v 0.6.2)44 using a maximum edit distance of 3. Hits were ranked based on (a) numbers of shRNAs that targeted the gene and scored positively in the screen, with 2 out of 5 shRNAs being considered meaningful; and (b) numbers of tumors enriched for a specific shRNA.

nuclear p53 = assay: Nuclear p53 immunofluorescence in skin 6 hours after γ-irradiation (5Gy); type: in vivo, mouse; settings: H2B-RFP labeled infected cells
Excerpt: Immunofluorescence staining The following primary antibodies were used for immunofluorescence: chicken anti-GFP (1:2000; Abcam); guinea-pig anti-K5 (1:500; E. Fuchs); rat anti-K14 (1:500; E. Fuchs); rabbit anti-K6 (1:500; E. Fuchs); rabbit anti-K18 (1:500; E. Fuchs); rat anti-CD104 β4-integrin (346-11A, 1:300; BD); rabbit anti loricin (1:500; E. Fuchs); rabbit anti-Caspase 3 (AF835, 1:1000; R&D), rabbit anti-K10 (PRB-159P, 1:1000; Covance); rabbit anti-Myh9 (HPA001644, 1:500 Sigma); rabbit anti-SMA (ab5694 1:300; Abcam) and rabit anti-p53 (NCL-p53-CMSp, 1:300; Leica). Secondary antibodies were conjugated to Alexa-488, 546, or 647 (1:1000, Life Technologies). Cells and tissues were processed as previously reported, and mounted in Vectashield HardSet mounting medium with DAPI (Life Technologies). […] For quantifications of nuclear p53, images were captured using an inverted Zeiss LSM 780 laser scanning microscope, powered by Zen software. Quantitative image analysis was performed using ImageJ software. To quantify p53 nuclear staining, the following formula was used: CTCF (corrected total cell fluorescence)=whole nucleus signal−(mean background signal (measured in the suprabasal layer)×area of the nucleus measured).

keratinocytes = assay: Scratch wound assay on keratinocytes infected in vitro; type: cell-based, mouse; settings: versus scrambled control
myosin-IIa = assay: Myosin-IIa protein by immunoblot/immunohistochemistry in transduced mice; type: in vivo, mouse
Method: Immunohistochemistry and histological analyses of mouse and human Tumors: Immunohistochemistry was performed as previously described. Briefly, 5-μm sections were cut, stained with H&E or processed for immunohistochemistry/immunofluorescence microscopy. Whole-mount staining of mammary glands was performed as described. For immunoperoxidase staining, paraffin-embedded sections were dehydrated and antigenic epitopes exposed using a 10-mM citrate buffer (pH 6.0) in a pressure cooker. Sections were incubated with the following primary antibodies at 4° C. overnight: rabbit anti-K14 (1:500; E. Fuchs) and rabbit anti-Myh9 (HPA001644, 1:500 Sigma). Primary antibody staining was visualized using peroxidase-conjugated anti-rabbit IgG followed by the DAB substrate kit for peroxidase visualization of secondary antibodies (Vector Laboratories). The following human tissue microarray comprising 48 healthy human skin samples, 30 hyperplastic skin lesions and 206 human skin SCCs as well as from 156 HNSCCs were obtained from US Biomax, Rockeville, Md.: SK244a, SK241, SK242, SK801, SK802, SK2081, SK801b and HN803a, HN811a, HN483.
Western Blot analysis:-Protein blotting was carried out using standard protocols. […]

[1] = tested on: hair follicle down-growth; assay: Hair follicle and eyelid phenotype of newborn mice transduced at E9.5; type: in vivo, mouse
Method: Materials and Methods. Mice and lentiviral transductions: TβRII foxed mice were crossed to K14-Cre and/or Rosa26YFPlox/stop/lox mice and or K14-CreER mice. Myh9 floxed mice were purchased form EMMA (EM:02572). CD1 mice were from Charles River laboratories. Large-scale production and concentration of lentivirus (6−10^9 cfu/ml) as well as ultrasound-guided lentiviral injection were performed as previously described. As controls for knock-down mice, littermates were infected with a non-targeting scrambled-shRNA, which activates the endogenous microRNA processing pathway but is not known to target any gene. Myh9fl/fl K14CreER mice were injected i.p. with 2 mg tamoxifen (20 mg/ml stock solution in corn oil) for 5 consecutive days at 6-8 weeks of age. DMBA/TPA treatment was performed as previously described. Briefly, 7-8 week old CD1 mice in second telogen were shaved and treated with 400 nmol DMBA in 100 ul aceton one week later. Thereafter, mice were treated with […] TPA in 100 ul aceton wice weekly for 20 weeks. All animals were maintained in an AAALAC-approved animal facility and procedures were performed with protocols approved by IACUC and in accordance with the National Institutes of Health.
Immunohistochemistry and histological analyses of mouse and human Tumors: Immunohistochemistry was performed as previously described. […]

Compound: CC(C)C[C@@H](C=O)NC(=O)[C@H](CC(C)C)NC(=O)[C@H](CC(C)C)NC(=O)OCc1ccccc1 [MG132] (Cbz-Leu-Leu-Leu-aldehyde)
- p53 protein levels in presence of proteasome inhibitor (p53 activation; Myh9-knockdown and control keratinocytes, DNA damage, MG132 3 μM): rescues Myh9 phenotype; also recorded: comparably induced in both Myh9-knockdown and control keratinocytes

Compound: COc1cccc2c1C(=O)c1c(O)c3c(c(O)c1C2=O)C[C@@](O)(C(=O)CO)C[C@@H]3O[C@H]1C[C@H](N)[C@H](O)[C@H](C)O1 [doxorubicin]
- p53 activation by DNA damage inducer (p53 activation; control primary keratinocytes): led to p53 activation

Compound: latrunculin
- DDR activation (γH2AX, phosphorylated Chk1 and Chk2) (H2AX, Chk1 and Chk2): normal DDR activation
- DDR-induced p53 activation (p53 immunoblot) (p53 activation): did not display these effects

Compound: CCC(=C/[C@H](C)C/C=C/C(C)=C/[C@@H](C)C(=O)[C@@H](C)[C@H](O)[C@@H](C)C/C(C)=C/C(=O)O)/C=C/[C@@H]1OC(=O)C=C[C@@H]1C [leptomycinB]
- nuclear p53 accumulation/retention after DNA damage (nuclear p53 accumulation): restored to normal levels
- nuclear p53 accumulation/retention after DNA damage (nuclear p53 accumulation; listed as Leptomycin B): rescues the ability of Myh9-deficient cells to retain p53 in the nucleus; also recorded: restores p53 accumulation after DNA damage
- transactivation of p53 target genes such as CDKN2 (p21) (nuclear p53 accumulation; DDR-induced myosin-IIa-deficient keratinocytes): restored to normal levels

Compound: Cc1ccc2c(c1)C(=O)C1(O)CCN(c3ccccc3)C1=N2 (centres unmarked) [blebbistatin]
- nuclear p53 accumulation/retention after DNA damage (nuclear p53 accumulation): Nuclear p53 is not retained
- DDR activation (γH2AX, phosphorylated Chk1 and Chk2) (H2AX, Chk1 and Chk2): normal DDR activation
- DDR-induced p53 activation (p53 immunoblot) (p53 activation): phenocopied Myh9 loss of function effects on DDR-induced p53 activation

Compound: Brcal-shRNA#560: positive-control shRNA targeting Brca1, 5′-CCCATCATACTTTAATGTGTA-3′ (SEQ ID NO: 1)
- shRNA enrichment in lesions relative to initial pool and healthy skin (HNSCC tumor suppressors): highly enriched

Compound: C[C@@H](N)[C@H]1CC[C@H](C(=O)Nc2ccncc2)CC1 [Y27632]
- DDR activation (γH2AX, phosphorylated Chk1 and Chk2) (H2AX, Chk1 and Chk2): normal DDR activation

Compound: Myh9-shRNA #507: shRNA targeting Myh9, 5′-GCGATACTACTCAGGGCTTAT-3′ (SEQ ID NO: 6)
- nuclear p53 staining in skin (nuclear p53): do not show efficient nuclear p53 staining

Compound: Myh9-shRNA #504: shRNA targeting Myh9, 5′-CGGTAAATTCATTCGTATCAA-3′ (SEQ ID NO: 3)
- keratinocyte migration (wound closure) (keratinocytes): enhances keratinocyte migration
- myosin-IIa protein in skin/epidermis (myosin-IIa; mice transduced in utero, examined at birth): loss of myosin-IIa
- myosin-IIa immunolabeling in SCC tumor epithelium (myosin-IIa; tumors from TβRII-cKO mice): absent
- hair follicle down-growth [1]: impaired hair follicle down-growth
